This is an account of results in patent US8937039B2, “Peptide-based peroxidase inhibitors and methods of using same” (The Medical College of Wisconsin, Inc., priority 2009, dated 2015).

Entries after “also recorded” stand apart in the source; their conditions may differ. Residues, ends and D or L forms follow the SMILES beside them.

In data set [1] the target is T1, MPO (Homo sapiens, UniProt P05164).
T1 sequence (P05164 49-745): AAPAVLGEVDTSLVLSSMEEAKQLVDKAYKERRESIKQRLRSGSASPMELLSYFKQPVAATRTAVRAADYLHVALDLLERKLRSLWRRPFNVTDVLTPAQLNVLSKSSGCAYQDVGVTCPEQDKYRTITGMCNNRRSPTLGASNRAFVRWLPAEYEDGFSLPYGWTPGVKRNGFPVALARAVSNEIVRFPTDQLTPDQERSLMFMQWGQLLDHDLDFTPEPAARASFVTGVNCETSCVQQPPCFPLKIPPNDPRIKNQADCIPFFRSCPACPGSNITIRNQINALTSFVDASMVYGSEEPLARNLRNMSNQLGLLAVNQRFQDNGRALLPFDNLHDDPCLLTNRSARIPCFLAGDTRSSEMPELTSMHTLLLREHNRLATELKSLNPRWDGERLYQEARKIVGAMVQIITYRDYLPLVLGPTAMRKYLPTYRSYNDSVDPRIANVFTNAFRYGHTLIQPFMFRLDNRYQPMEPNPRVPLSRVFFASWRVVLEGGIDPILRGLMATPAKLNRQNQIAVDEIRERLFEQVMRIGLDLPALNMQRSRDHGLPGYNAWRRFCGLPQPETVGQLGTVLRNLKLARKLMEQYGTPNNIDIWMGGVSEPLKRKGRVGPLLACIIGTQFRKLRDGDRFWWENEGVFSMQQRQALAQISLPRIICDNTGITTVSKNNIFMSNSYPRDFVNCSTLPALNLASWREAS
Nature of the data set: MPO-mediated LDL oxidation (conjugated diene formation, 234 nm). It counts as biochemical. Details: purchased Lee Biosolutions (St. Louis, Mo.). To be noted: 25 μM; for MPO/H2O2/nitrite-mediated LDL oxidation (in words): H2O2 100 μM, NaNO2 100 μM; for MPO/H2O2-mediated LDL oxidation in the absence of nitrite (in words): without NaNO2. The procedure: MPO-mediated oxidation of LDL. […] LDL oxidation was monitored at 234 nm at room temperature on a HP UV/VIS spectrometer. Absorbance traces represent the average of duplicate experiments.
MPO-mediated LDL Oxidation. […] Rates of LDL oxidation were monitored at room temperature at 234 nm, the wavelength maximum for conjugated dienes.
MPO-mediated LDL Conjugated Diene Formation: Reaction mixtures contained LDL (0.15 mg/mL), NaNO2 (100 μM), H2O2 (100 μM), MPO (20 nM) and increasing concentrations of KYC or equimolar concentrations of various compounds in a phosphate buffer (100 mM, pH 7.4) containing DTPA (100 μM). Rates of LDL conjugated diene formation were determined by following changes in absorbance at 234 nm, the wavelength maximum for conjugated dienes, on a UV-Vis spectrophotometer (Agilent Model 8453) at room temperature.

The target of data set [2] is T1, MPO. To be noted: reported, order of magnitude; cited from earlier work.
Data set [3] concerns the target T1, MPO. Nature of the data set: MPO-catalyzed HOCl production (taurine/TMB assay). On the set-up: purchased Lee Biosolutions (St. Louis, Mo.). It counts as biochemical. To be noted: for Dose-dependent effect on MPO-catalyzed HOCl production (in words): increasing concentrations, FIG. 14C/14D; for Effect on MPO HOCl production at equimolar concentration (in words): 12.5 μM. The procedure:
MPO-mediated HOCl Production. MPO (20 nM) was incubated with H2O2 (50 μM), NaCl (150 mM), taurine (5 mM) and increasing concentrations of KYC in phosphate buffer (100 mM, pH 7.4) which also contained diethylene triamine pentaacetic acid (DTPA, 100 μM) to prevent non-specific, divalent metal cation oxidation for 30 min. Reactions were halted by addition of catalase. Chlorotaurine was quantified using the 3,3-,5,5-tetramethylbenzidine (TMB) assay. Briefly, 400 μL of reaction solution was mixed with 100 μL of 2 mM TMB, 100 μM NaI containing 10% dimethylformamide (DMF) in 400 mM acetate buffer (pH 5.4). After 5 min, absorbance (650 nm) was recorded on a UV/Vis spectrophotometer (Agilent Model 8453).
MPO-catalyzed HOCl Production: MPO (20 nM) was incubated with H2O2 (50 μM), NaCl (150 mM), taurine (5 mM) and increasing concentrations of KYC in a phosphate buffer (100 mM, pH 7.4) containing diethylene triamine pentaacetic acid (DTPA, 100 μM) to prevent non-specific, divalent metal cation oxidation for 30 min. Reactions were halted by addition of catalase (2,000 units/mL). Chlorotaurine was quantified using the TMB assay (66). Briefly, 400 μL of reaction solution was mixed with 100 μL of 2 mM TMB, 100 μM NaI containing 10% dimethylformamide (DMF) in 400 mM acetate buffer (pH 5.4). After 5 min, absorbance (650 nm) was recorded on a UV/Vis spectrophotometer (Agilent Model 8453).

The next data set concerns SS/Mcw rat hearts. Nature of the data set: Ischemia/reperfusion injury in isolated perfused hearts. To be noted: FIG. 5B. The source says: Ischemia/Reperfusion (I/R) Injury in Isolated Hearts. Rats used in this study received humane care in compliance with the Guide for the Care and Use of Laboratory Animals, by the National Research Council. Rats were maintained on a low salt (0.4% NaCl) diet with unlimited access to water. Environmental influences were minimized by maintaining rats in identical housing conditions. Dahl S (SS/Mcw male rats at 8 weeks of age were used for this study.
Modified Krebs-Henseleit bicarbonate buffer was prepared containing the following components (in mM): 118.5 NaCl, 25.0 NaHCO3, 4.8 KCl, 1.2 MgSO4.6H2O, and 1.2 KH2PO4 (pH 7.4 when gassed with 95% O2-5% CO2) in which the calcium content was 1.8. Glucose (11.1 mM) was added to the perfusate. Before use, all perfusion fluids were filtered through cellulose acetate membranes with a pore size of 5 μm. To this perfusate, drugs (KAA, KYC) were added as needed. Animals were weighed, and heparin was administered intraperitoneally based on weight (150 IU/kg). Anesthesia was induced with pentobarbital sodium (30 mg/kg ip). […] Left ventricular pressure (LVP) was measured isovolumetrically with a transducer connected to a thin, saline-filled latex balloon inserted into the left ventricle through the mitral valve from an incision in the left atrium. […]

A short description of data set [4]: Solubility in aqueous buffers. It counts as physicochemical.

For the molecule `N[C@@H](CCC(=O)N[C@@H](CS)C(=O)NCC(=O)O)C(=O)O` [GSH, glutathione], on MPO [1], the “MPO/H2O2/nitrite-mediated LDL oxidation (in words)” value was “ineffective” and the “MPO/H2O2-mediated LDL oxidation in the absence of nitrite (in words)” value (“MPO/H2O2-mediated LDL oxidation” below) is “inhibited; also recorded: did not increase LDL oxidation”. Further, the “Rate of reaction with MPO/H2O2 systems” value at MPO [2] was 10 to 100 M⁻¹ s⁻¹.
Take `CC(=O)N[C@@H](CCCCN)C(=O)N[C@@H](Cc1ccccc1)C(=O)N[C@@H](CS)C(N)=O` [KFC, N-acetyl Lysylphenylalanylcysteine amid] (Ac-Lys-Phe-Cys-NH2): at MPO [3], the “Dose-dependent effect on MPO-catalyzed HOCl production (in words)” value was “weaker inhibitor”. The “MPO/H2O2/nitrite-mediated LDL oxidation (in words)” value at MPO [1] was “increased the lag phase and delayed, but did not totally inhibit”.
For the molecule `CC(=O)N[C@@H](CCCCN)C(=O)N[C@@H](Cc1c[nH]c2ccccc12)C(=O)N[C@@H](CS)C(N)=O` [KWC] (Ac-Lys-Trp-Cys-NH2), in the data set on SS/Mcw rat hearts, the “Cardioprotection in SS/Mcw rat hearts (in words)” value is given as “increase cardioprotection”.
`N[C@@H](Cc1c[nH]c2ccccc12)C(=O)O` [Trp, tryptophan]: on MPO [3], the “Effect on MPO HOCl production at equimolar concentration (in words)” value is “effective inhibitor”. Moreover, on MPO [1], the “MPO/H2O2/nitrite-mediated LDL oxidation (in words)” value is “did not inhibit but actually enhanced” and the “MPO/H2O2-mediated LDL oxidation” value was “increased”.
Turning to `N[C@@H](Cc1ccc(O)cc1)C(=O)O` [Tyr, tyrosine], the “Effect on MPO HOCl production at equimolar concentration (in words)” value on MPO [3] is “little, if any effect”; on MPO [3] (listed as Tyrosine), “little if any effect”. Besides, the “MPO/H2O2/nitrite-mediated LDL oxidation (in words)” value on MPO [1] is “accelerated and enhanced”. Besides, the “MPO/H2O2-mediated LDL oxidation” value on MPO [1] was “increased”.
Consider `N[C@@H](Cc1ccc(O)cc1)C(=O)N[C@@H](CS)C(=O)O` [YC, reference compound] (H-Tyr-Cys-OH; N-terminus and C-terminus assumed), for which, in data set [4], the “Solubility in water / aqueous buffers (in words)” value is “difficult to dissolve in aqueous buffers”.
For the molecule “N-acetyl Lysyltyrosylcyeteine amide [KYS]”, the “Dose-dependent effect on MPO-catalyzed HOCl production (in words)” value on MPO [3] was “failed to inhibit; also recorded: not an inhibitor”. For the same molecule, the “MPO/H2O2/nitrite-mediated LDL oxidation (in words)” value at MPO [1] is reported as “accelerated LDL oxidation”.
